Laboratory results as given in article PMC10978029 (Virulence, 2024).
pKd: −log10 of the molar value.

Legend:
STM0435 [1] = molecular target: STM0435 (Salmonella enterica, UniProt Q8ZRC9, R33H); test: biochemical
STM0435 [2] = molecular target: STM0435 (Salmonella enterica, UniProt Q8ZRC9, D138H/R137H); test: biochemical
STM0435 [3] = molecular target: STM0435 (Salmonella enterica, UniProt Q8ZRC9, D138H/R137H/R33H); test: biochemical
STM0435 [4] = molecular target: T1, STM0435 (Salmonella enterica, UniProt Q8ZRC9); test: SPR; type: binding
T1 sequence (Q8ZRC9 1-163): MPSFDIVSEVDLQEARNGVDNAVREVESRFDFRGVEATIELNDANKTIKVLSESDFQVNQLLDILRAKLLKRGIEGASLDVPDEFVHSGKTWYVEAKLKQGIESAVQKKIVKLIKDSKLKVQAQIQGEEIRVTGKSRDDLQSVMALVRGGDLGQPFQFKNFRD

## Nc1nc2c(ncn2[C@@H]2O[C@@H]3CO[P@](=O)(O)O[C@H]4[C@@H](O)[C@H](n5cnc6c(=O)[nH]c(N)nc65)O[C@@H]4CO[P@](=O)(O)O[C@H]3[C@H]2O)c(=O)[nH]1 [c-di-GMP]
STM0435 [1]
  pKd: 4.82
STM0435 [2]
  pKd: 4.60
STM0435 [3]
  pKd: 4.48
STM0435 [4]
  pKd: 5.08
